The results in this text go back to ChEMBL document CHEMBL2163236, “7-Oxo-[1,4]oxazino[2,3,4-ij]quinoline-6-carboxamides as selective CB(2) cannabinoid receptor ligands: structural investigations around a novel class of full agonists” (J Med Chem, 2012).

Each structure is given as a SMILES string. pIC50, pKi: −log10 of the molar value.

The species entered for one experiment is Homo sapiens. As to the kind of experiment: Selectivity ratio of Ki for human recombinant CB1 receptor to KI for human recombinant CB2 receptor.
Experiment [1] deals with Cannabinoid receptor 1 (Homo sapiens, UniProt P21554). As to the kind of experiment: Displacement of [3H]CP-55940 from human recombinant CB1 receptor expressed in CHO cell membranes incubated for 90 mins by scintillation counting.
The target of experiment [2] is Cannabinoid receptor 1 (Rattus norvegicus, UniProt P20272). As to the kind of experiment: Displacement of [3H]CP-55940 from CB1 receptor in Sprague-Dawley rat brain by scintillation counting.
Experiment [3] deals with T1, Cannabinoid receptor 2 (Rattus norvegicus, UniProt Q9QZN9).
T1 sequence (Q9QZN9 whole entry): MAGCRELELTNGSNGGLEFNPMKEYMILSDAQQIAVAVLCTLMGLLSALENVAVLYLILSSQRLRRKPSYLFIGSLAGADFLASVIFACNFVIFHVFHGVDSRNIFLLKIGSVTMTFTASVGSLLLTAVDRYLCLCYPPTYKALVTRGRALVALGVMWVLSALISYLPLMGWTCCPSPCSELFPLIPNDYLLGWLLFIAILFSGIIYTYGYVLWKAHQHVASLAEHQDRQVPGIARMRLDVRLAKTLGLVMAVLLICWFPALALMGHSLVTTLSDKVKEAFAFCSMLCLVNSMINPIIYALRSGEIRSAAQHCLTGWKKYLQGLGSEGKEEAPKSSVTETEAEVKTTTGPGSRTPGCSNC
As to the kind of experiment: Displacement of [3H]CP-55940 from CB2 receptor in Sprague-Dawley rat spleen by scintillation counting.

In experiment [4] the target is T2, Cannabinoid receptor 2 (Homo sapiens, UniProt P34972). As to the kind of experiment: Displacement of [3H]CP-55940 from human recombinant CB2 receptor expressed in CHO cell membranes incubated for 60 mins by scintillation counting.
Experiment [5] concerns the target T2, Cannabinoid receptor 2. As to the kind of experiment: Agonist activity at human recombinant CB2 receptor expressed in CHO cell membranes assessed as inhibition of forskolin-induced cAMP accumulation. The experiment is classed as functional, cell-based.

T2 sequence (P34972 whole entry): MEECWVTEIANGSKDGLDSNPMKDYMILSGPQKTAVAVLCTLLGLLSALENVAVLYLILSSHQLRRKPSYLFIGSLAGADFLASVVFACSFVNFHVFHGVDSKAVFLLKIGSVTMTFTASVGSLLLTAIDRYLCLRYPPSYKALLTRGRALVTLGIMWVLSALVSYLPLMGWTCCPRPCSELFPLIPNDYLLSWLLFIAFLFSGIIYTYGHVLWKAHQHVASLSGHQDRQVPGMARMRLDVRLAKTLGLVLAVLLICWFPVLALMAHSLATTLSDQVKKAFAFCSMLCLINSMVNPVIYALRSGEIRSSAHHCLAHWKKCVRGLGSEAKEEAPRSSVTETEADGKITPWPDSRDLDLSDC
Cannabinoid receptor 1 (Rattus norvegicus, UniProt P20272), sequence (P20272 whole entry): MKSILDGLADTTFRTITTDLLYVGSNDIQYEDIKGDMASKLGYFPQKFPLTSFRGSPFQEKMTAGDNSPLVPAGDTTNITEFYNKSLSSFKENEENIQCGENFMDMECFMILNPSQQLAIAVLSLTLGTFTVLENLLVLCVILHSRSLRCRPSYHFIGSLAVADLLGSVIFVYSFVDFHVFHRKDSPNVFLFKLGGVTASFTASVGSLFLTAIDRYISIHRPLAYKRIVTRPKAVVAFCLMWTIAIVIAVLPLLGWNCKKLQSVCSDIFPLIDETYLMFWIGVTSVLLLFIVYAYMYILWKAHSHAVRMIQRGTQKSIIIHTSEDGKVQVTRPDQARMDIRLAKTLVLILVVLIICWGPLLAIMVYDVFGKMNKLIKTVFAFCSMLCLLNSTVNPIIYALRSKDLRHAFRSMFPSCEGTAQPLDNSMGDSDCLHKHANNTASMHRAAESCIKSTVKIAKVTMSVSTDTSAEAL
Cannabinoid receptor 1 (Homo sapiens, UniProt P21554), sequence (P21554 whole entry): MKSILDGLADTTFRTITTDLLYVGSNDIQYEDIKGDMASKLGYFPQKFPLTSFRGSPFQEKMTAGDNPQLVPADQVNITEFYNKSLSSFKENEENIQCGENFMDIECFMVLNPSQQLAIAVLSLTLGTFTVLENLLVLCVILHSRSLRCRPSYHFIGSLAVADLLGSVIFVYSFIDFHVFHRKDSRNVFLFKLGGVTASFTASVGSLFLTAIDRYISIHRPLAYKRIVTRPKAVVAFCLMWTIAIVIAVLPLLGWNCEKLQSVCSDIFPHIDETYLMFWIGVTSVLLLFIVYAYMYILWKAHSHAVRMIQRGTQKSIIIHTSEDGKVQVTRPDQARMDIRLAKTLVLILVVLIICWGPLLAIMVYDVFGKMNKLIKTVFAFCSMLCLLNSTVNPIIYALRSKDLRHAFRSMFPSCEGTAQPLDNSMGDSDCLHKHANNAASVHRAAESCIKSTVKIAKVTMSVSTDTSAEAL

Regarding `O=C(NC1CCCC1)c1cn2c3c(cccc3c1=O)OCC2c1ccccc1` (racemic), in the experiment listed under Homo sapiens, the Ratio Ki is 1.35. In addition, the pKi at Cannabinoid receptor 1 [1] is 6.88; on Cannabinoid receptor 1 [2], 6.82; on Cannabinoid receptor 2 [3], 6.96; on Cannabinoid receptor 2 [4], 7.01. Further, the pIC50 on Cannabinoid receptor 2 [5] is 6.33.
For `Cc1ccc(C2COc3cccc4c(=O)c(C(=O)NC56CC7CC(CC(C7)C5)C6)cn2c34)cc1` (racemic), in the experiment listed under Homo sapiens, the Ratio Ki amounted to 9.41. The pKi on Cannabinoid receptor 1 [1] is 5.41; on Cannabinoid receptor 1 [2], 5.38; at Cannabinoid receptor 2 [3], 6.32; on Cannabinoid receptor 2 [4] it was 6.39. Besides, the negative logarithm of the IC50 (pIC50) on Cannabinoid receptor 2 [5] was 5.65.
As for `CC(C)[C@H]1COc2cccc3c(=O)c(C(=O)NC45CC6CC(CC(C6)C4)C5)cn1c23`, the Ratio Ki in the experiment filed under Homo sapiens was 53. For the same compound, the pKi on Cannabinoid receptor 1 [1] was 6.07; at Cannabinoid receptor 1 [2] it was 6.06; at Cannabinoid receptor 2 [3], 7.71; at Cannabinoid receptor 2 [4] it was 7.79. Moreover, the pIC50 at Cannabinoid receptor 2 [5] was 7.26.
Take `CCC1COc2cccc3c(=O)c(C(=O)NC4C5CC6CC(C5)CC4C6)cn1c23` (racemic): the Ratio Ki in the experiment listed under Homo sapiens was determined as 30. For the same compound, the negative logarithm of the Ki (pKi) on Cannabinoid receptor 1 [1] is 6.41; at Cannabinoid receptor 1 [2], 6.37; at Cannabinoid receptor 2 [3] it was 7.79; on Cannabinoid receptor 2 [4] it was 7.88. The pIC50 at Cannabinoid receptor 2 [5] was 7.24.
Consider `CC(C)C1COc2cccc3c(=O)c(C(=O)NC45CC6CC(CC(C6)C4)C5)cn1c23` (racemic), for which the Ratio Ki in the experiment filed under Homo sapiens came to 86. The pKi on Cannabinoid receptor 1 [1] was 6.49; at Cannabinoid receptor 1 [2] it was 6.44; at Cannabinoid receptor 2 [3], 8.37; at Cannabinoid receptor 2 [4], 8.43. Further, the pIC50 at Cannabinoid receptor 2 [5] is 7.91.
With `CCC1COc2cccc3c(=O)c(C(=O)NC4CCCCCC4)cn1c23` (racemic), the Ratio Ki in the experiment filed under Homo sapiens worked out at 47. For the same compound, the pKi at Cannabinoid receptor 1 [1] was 6.36; at Cannabinoid receptor 1 [2], 6.30; on Cannabinoid receptor 2 [3], 7.94; at Cannabinoid receptor 2 [4], 8.03. For the same compound, the pIC50 at Cannabinoid receptor 2 [5] was 7.38.
Consider `Cc1cc2c3c(c1)c(=O)c(C(=O)NC1CCCCC1)cn3C(c1ccccc1)CO2` (racemic), for which, in the experiment listed under Homo sapiens, the Ratio Ki was found to be 73. In addition, the pKi on Cannabinoid receptor 1 [1] was 5.87; on Cannabinoid receptor 1 [2], 5.80; on Cannabinoid receptor 2 [3] it was 7.60; on Cannabinoid receptor 2 [4] it was 7.74. Besides, on Cannabinoid receptor 2 [5], the pIC50 was 6.96.
Consider `CCC1COc2cccc3c(=O)c(C(=O)Nc4ccncc4)cn1c23` (racemic), for which the Ratio Ki in the experiment filed under Homo sapiens amounted to 8. Besides, the pKi on Cannabinoid receptor 1 [1] was 5.94; at Cannabinoid receptor 1 [2], 5.86; on Cannabinoid receptor 2 [3], 6.74; on Cannabinoid receptor 2 [4] it was 6.82. The pIC50 at Cannabinoid receptor 2 [5] was 6.17.
Regarding `CC[C@H]1COc2cccc3c(=O)c(C(=O)NC45CC6CC(CC(C6)C4)C5)cn1c23`, the Ratio Ki in the experiment filed under Homo sapiens stood at 7. In addition, the pKi on Cannabinoid receptor 1 [1] is 6.24; on Cannabinoid receptor 1 [2] it was 6.19; at Cannabinoid receptor 2 [3], 7.01; at Cannabinoid receptor 2 [4] it was 7.06. Also, at Cannabinoid receptor 2 [5], the pIC50 was 6.38.
On to `Cc1ccc(C2COc3cccc4c(=O)c(C(=O)NC5CCCCC5)cn2c34)cc1` (racemic), for which the Ratio Ki in the experiment listed under Homo sapiens came out at 8.78. In addition, the pKi on Cannabinoid receptor 1 [1] was 5.39; at Cannabinoid receptor 1 [2], 5.34; on Cannabinoid receptor 2 [3], 6.26; on Cannabinoid receptor 2 [4], 6.33. Further, the pIC50 at Cannabinoid receptor 2 [5] was 5.61.
As to `CC1COc2cccc3c(=O)c(C(=O)NC4CCCCC4)cn1c23` (racemic), the Ratio Ki in the experiment listed under Homo sapiens worked out at 36. Also, the pKi is 5.67 on Cannabinoid receptor 1 [1], 5.58 on Cannabinoid receptor 1 [2], 7.19 at Cannabinoid receptor 2 [3] and 7.22 on Cannabinoid receptor 2 [4]. Besides, the pIC50 at Cannabinoid receptor 2 [5] was 6.61.
On to `CC1COc2cccc3c(=O)c(C(=O)NC4CCCCCC4)cn1c23` (racemic), for which the Ratio Ki in the experiment listed under Homo sapiens was greater than 263. The pKi was less than 5.00 at Cannabinoid receptor 1 [1], less than 5.00 on Cannabinoid receptor 1 [2], 7.28 at Cannabinoid receptor 2 [3] and 7.42 on Cannabinoid receptor 2 [4]. The negative-log IC50 (pIC50) on Cannabinoid receptor 2 [5] was 6.68.
Regarding `CCC1COc2c(OC)ccc3c(=O)c(C(=O)NC45CC6CC(CC(C6)C4)C5)cn1c23` (racemic), the Ratio Ki in the experiment filed under Homo sapiens came to 77. For the same compound, the pKi was 6.28 at Cannabinoid receptor 1 [1], 6.23 at Cannabinoid receptor 1 [2], 8.04 on Cannabinoid receptor 2 [3] and 8.17 on Cannabinoid receptor 2 [4]. Further, on Cannabinoid receptor 2 [5], the pIC50 was 7.62.
In the case of `CC1Oc2cccc3c(=O)c(C(=O)NC45CC6CC(CC(C6)C4)C5)cn(c23)C1c1ccccc1` (racemic), the Ratio Ki in the experiment filed under Homo sapiens came to 7.33. Further, the negative-log Ki (pKi) at Cannabinoid receptor 1 [1] was 5.61; on Cannabinoid receptor 1 [2], 5.58; on Cannabinoid receptor 2 [3] it was 6.35; on Cannabinoid receptor 2 [4] it was 6.48. Also, the pIC50 at Cannabinoid receptor 2 [5] was 5.77.
In the case of `O=C(NC1CCCCC1)c1cn2c3c(cccc3c1=O)OCC2C1CC1` (racemic), in the experiment listed under Homo sapiens, the Ratio Ki was found to be 7. Moreover, the pKi at Cannabinoid receptor 1 [1] is 6.99; on Cannabinoid receptor 1 [2] it was 6.91; at Cannabinoid receptor 2 [3], 7.74; at Cannabinoid receptor 2 [4], 7.82. The negative logarithm of the IC50 (pIC50) on Cannabinoid receptor 2 [5] is 7.17.
For the compound `O=C(NC12CC3CC(CC(C3)C1)C2)c1cn2c3c(cccc3c1=O)OCC2c1ccccc1` (racemic), in the experiment listed under Homo sapiens, the Ratio Ki was 19. Besides, the pKi on Cannabinoid receptor 1 [1] is 6.58; on Cannabinoid receptor 1 [2], 6.17; at Cannabinoid receptor 2 [3], 7.74; at Cannabinoid receptor 2 [4], 7.85. Moreover, on Cannabinoid receptor 2 [5], the pIC50 is 7.59.
Turning to `CCC1COc2c(N3CCN(C)CC3)ccc3c(=O)c(C(=O)NC45CC6CC(CC(C6)C4)C5)cn1c23` (racemic), the Ratio Ki in the experiment filed under Homo sapiens was greater than 238. In addition, the negative logarithm of the Ki (pKi) was less than 5.00 at Cannabinoid receptor 1 [1], less than 5.00 at Cannabinoid receptor 1 [2], 7.21 at Cannabinoid receptor 2 [3] and 7.38 on Cannabinoid receptor 2 [4]. Further, on Cannabinoid receptor 2 [5], the pIC50 was 6.71.
On to `CCCC1COc2cccc3c(=O)c(C(=O)NC45CC6CC(CC(C6)C4)C5)cn1c23` (racemic), for which the Ratio Ki in the experiment filed under Homo sapiens is 92. For the same compound, the pKi was 6.67 at Cannabinoid receptor 1 [1], 6.62 on Cannabinoid receptor 1 [2], 8.56 on Cannabinoid receptor 2 [3] and 8.63 on Cannabinoid receptor 2 [4]. Further, on Cannabinoid receptor 2 [5], the pIC50 is 7.82.
Turning to `C[C@@H]1COc2cccc3c(=O)c(C(=O)NC45CC6CC(CC(C6)C4)C5)cn1c23`, the Ratio Ki in the experiment filed under Homo sapiens was greater than 212. For the same compound, the pKi is less than 5.00 at Cannabinoid receptor 1 [1], less than 5.00 at Cannabinoid receptor 1 [2], 7.28 at Cannabinoid receptor 2 [3] and 7.33 at Cannabinoid receptor 2 [4]. The pIC50 on Cannabinoid receptor 2 [5] is 6.82.
For `CCC1COc2cccc3c(=O)c(C(=O)NC(C)CCC(C)C)cn1c23` (racemic), the Ratio Ki in the experiment listed under Homo sapiens is greater than 633. Besides, the pKi on Cannabinoid receptor 1 [1] was less than 5.00; at Cannabinoid receptor 1 [2], less than 5.00; at Cannabinoid receptor 2 [3], 6.71; on Cannabinoid receptor 2 [4], 7.80. At Cannabinoid receptor 2 [5], the pIC50 was 7.21.
